According to patent US10174035B2, “6-morpholinyl-2-pyrazolyl-9H-purine derivatives and their use as PI3K inhibitors” (Daiichi Sankyo Company, Limited, priority 2015, dated 2019):
Values after ≈ are worked out from the molar mass of the structure shown. Like-named read-outs stand apart in the source and are kept apart here.

How the values were obtained:
[1] = target: PI3Kγ (Homo sapiens (Human), UniProt P48736); test: In vitro enzyme assay (Kinase-Glo), selectivity, PI3Kγ; type: biochemical; conditions: enzyme 2.29 μg/mL; ATP 10 μM; PIP2 60 μM; 2 hours
PI3Kγ, sequence (P48736 whole entry, species assumed): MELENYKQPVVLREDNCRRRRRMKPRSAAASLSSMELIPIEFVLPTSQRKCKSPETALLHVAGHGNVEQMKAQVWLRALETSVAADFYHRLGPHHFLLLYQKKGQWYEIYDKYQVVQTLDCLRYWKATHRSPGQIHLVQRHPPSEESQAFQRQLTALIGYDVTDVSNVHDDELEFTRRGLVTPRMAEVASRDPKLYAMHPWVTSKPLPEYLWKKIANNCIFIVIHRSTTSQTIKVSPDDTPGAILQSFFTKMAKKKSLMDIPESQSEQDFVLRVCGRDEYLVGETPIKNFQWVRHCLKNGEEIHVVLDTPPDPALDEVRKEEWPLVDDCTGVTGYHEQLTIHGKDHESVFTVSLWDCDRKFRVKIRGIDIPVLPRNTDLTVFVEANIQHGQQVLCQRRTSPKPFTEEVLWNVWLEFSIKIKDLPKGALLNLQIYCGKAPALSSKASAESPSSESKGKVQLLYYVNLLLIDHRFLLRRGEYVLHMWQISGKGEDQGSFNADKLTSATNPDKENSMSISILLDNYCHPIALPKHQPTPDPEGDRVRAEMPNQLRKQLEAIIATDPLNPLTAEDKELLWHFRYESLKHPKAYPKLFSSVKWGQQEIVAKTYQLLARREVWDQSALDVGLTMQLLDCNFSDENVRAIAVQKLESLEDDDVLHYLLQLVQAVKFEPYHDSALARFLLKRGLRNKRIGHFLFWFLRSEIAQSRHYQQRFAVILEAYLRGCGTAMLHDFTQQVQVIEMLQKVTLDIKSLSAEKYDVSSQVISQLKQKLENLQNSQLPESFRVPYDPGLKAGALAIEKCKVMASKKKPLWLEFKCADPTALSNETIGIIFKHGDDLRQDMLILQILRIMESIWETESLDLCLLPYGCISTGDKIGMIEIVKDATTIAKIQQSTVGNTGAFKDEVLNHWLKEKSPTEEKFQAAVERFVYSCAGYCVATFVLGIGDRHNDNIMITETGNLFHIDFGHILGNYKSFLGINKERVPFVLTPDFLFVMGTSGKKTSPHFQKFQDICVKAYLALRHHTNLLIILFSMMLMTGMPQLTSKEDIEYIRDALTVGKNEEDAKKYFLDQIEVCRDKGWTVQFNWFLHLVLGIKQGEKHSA
Method: The Kinase-Glo luminescent kinase assay kit (from Promega) was used to measure kinase activity. In this assay, amount of ATP remaining in solution following a kinase reaction is measured. […] The reaction mixture was incubated for 2 hours at room temperature. At the end of incubation period the equal volume of Kinase-Glo plus (Promega, V3772), was added per well and the luminescence was measured after incubating for 10 minutes at room temperature in dark. Results were calculated by measuring the luminescence units of test samples to blanks containing no enzyme.
(§1) The compounds of the present invention were tested for their selectivity for PI3Kδ over PI3Kα, PI3Kβ and PI3Kγ following the above assay using specific recombinant enzymes (Proteros, Germany) for each kinase. Assay condition of kinase assay (PI3Kα, PI3Kβ, PI3Kγ and PI3Kδ) was as follows.

[2] = system: eosinophil count in bronchoalveolar lavage fluid; test: Ovalbumin-induced airway eosinophilia model in Brown Norway rats; type: in vivo; conditions: oral; for Percent inhibition of BAL eosinophil count at 3 mg/kg: ovalbumin challenge; for ED50: bid, absolute eosinophil count in BAL fluid
Method: The protocols were followed in similar fashion as described in Clin. Exp. Immunol., 2001; 126:9-15 and J. Pharmacol. Exp. Ther., 2011; 337:145-54. Male Brown Norway rats were sensitized by intraperitoneal injection of a suspension of 1 mg of ovalbumin and 100 mg of aluminum hydroxide (in sterile 0.9% saline) on day 0 and 7. On day 14, the compounds were administered to the rats by oral gavage. One hour after oral administration, the animals were placed into a perspex chamber and exposed to an aerosol of 5% ovalbumin for ten minutes. Compounds were administered on Day 14 and Day 15 either once or twice daily. Forty-eight hours after ovalbumin challenge, the animals were euthanized and bronchoalveolar lavage fluid was collected. The cell suspensions were processed and absolute eosinophil count was enumerated.

[3] = target: PI3Kβ (Homo sapiens (Human), UniProt P42338); test: In vitro enzyme assay (Kinase-Glo), selectivity, PI3Kβ; type: biochemical; conditions: enzyme 2.29 μg/mL; ATP 10 μM; PIP2 60 μM; 2 hours
PI3Kβ, sequence (P42338 whole entry, species assumed): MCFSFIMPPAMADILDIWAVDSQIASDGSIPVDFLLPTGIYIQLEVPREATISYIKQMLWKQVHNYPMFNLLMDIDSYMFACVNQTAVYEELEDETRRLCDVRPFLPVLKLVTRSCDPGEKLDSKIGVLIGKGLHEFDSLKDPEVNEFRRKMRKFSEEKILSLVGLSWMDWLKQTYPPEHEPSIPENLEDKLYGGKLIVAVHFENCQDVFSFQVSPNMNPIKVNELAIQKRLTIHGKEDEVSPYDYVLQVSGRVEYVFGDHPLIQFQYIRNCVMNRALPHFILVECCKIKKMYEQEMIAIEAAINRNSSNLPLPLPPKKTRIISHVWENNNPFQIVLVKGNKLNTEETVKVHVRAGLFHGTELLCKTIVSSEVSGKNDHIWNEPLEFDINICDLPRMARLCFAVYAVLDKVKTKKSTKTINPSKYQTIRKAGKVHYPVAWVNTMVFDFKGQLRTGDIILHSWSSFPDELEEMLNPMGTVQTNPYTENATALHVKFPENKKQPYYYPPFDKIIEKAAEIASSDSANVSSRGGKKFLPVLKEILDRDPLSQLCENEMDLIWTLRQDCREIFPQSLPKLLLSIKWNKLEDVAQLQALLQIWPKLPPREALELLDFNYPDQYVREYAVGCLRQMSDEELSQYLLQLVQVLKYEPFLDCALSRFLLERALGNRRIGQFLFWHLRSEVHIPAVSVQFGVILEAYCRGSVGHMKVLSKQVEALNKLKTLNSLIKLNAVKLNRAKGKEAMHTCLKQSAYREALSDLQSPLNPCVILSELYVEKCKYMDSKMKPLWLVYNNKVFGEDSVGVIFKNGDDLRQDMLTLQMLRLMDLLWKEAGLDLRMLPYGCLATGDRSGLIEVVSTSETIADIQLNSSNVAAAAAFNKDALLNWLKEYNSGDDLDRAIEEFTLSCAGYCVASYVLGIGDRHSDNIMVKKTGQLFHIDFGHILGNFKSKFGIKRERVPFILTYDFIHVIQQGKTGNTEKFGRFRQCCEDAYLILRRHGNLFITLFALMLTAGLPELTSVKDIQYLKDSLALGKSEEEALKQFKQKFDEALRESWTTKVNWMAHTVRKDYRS
PI3Kβ, sequence (P27986 whole entry partner, species assumed): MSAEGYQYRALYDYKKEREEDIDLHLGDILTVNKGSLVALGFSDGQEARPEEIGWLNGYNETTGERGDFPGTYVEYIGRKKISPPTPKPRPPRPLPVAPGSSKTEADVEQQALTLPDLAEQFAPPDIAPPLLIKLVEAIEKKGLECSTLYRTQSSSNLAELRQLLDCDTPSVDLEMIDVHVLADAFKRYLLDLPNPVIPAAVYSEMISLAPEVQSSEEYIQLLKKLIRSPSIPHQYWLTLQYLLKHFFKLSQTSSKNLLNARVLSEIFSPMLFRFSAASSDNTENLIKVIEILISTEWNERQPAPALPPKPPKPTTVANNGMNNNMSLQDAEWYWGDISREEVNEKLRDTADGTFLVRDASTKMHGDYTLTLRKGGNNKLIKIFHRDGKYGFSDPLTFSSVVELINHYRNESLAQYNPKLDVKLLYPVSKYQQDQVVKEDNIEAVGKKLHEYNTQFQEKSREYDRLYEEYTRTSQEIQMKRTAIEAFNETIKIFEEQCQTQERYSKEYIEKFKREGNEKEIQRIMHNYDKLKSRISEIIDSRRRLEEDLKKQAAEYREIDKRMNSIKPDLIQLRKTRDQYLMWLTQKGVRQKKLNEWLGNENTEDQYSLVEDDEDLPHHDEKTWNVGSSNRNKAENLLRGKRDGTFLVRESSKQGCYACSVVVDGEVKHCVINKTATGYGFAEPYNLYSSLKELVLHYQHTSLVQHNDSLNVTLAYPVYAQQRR
Method: (§2) The Kinase-Glo luminescent kinase assay kit (from Promega) was used to measure kinase activity. In this assay, amount of ATP remaining in solution following a kinase reaction is measured. The effect of compounds on PI3Kδ inhibition was carried out by adding 2.29 μg/ml of recombinant PI3K δ enzyme (Proteros, Germany) to reaction mixture containing assay buffer (50 mM HEPES, pH 7.4, 50 mM NaCl, 0.05% CHAPS) supplemented with 10 mM MgCl2, 5 mM DTT, 60 μM Phosphatidyl inositol bisphosphate (PIP2) and 10 μM ATP in the absence or presence of different concentrations of the compounds in a final volume of 15 μl/well, in a 384 well plate. The reaction mixture was incubated for 2 hours at room temperature. At the end of incubation period the equal volume of Kinase-Glo plus (Promega, V3772), was added per well and the luminescence was measured after incubating for 10 minutes at room temperature in dark. Results were calculated by measuring the luminescence units of test samples to blanks containing no enzyme.
as §1, with “follows. Enzyme: 2.29 μg/mL; ATP: 10 μM; PIP2 substrate: 60 μM and Reaction Time: 2 hours.” for “follows.”

[4] = system: IFN-γ release in mouse splenocytes; test: Phytohaemagglutinin (PHA)-induced interferon (IFN)-gamma release in mouse splenocytes; parameters: species or system C57BL/6 mouse; conditions: Splenocyte, PHA (10 μg/ml) for 48 hours, IFN-γ by ELISA, read-out: Cell Based IC50
Method: Effect of compounds on mitogen-induced IFN-γ release in mouse splenocytes was used to evaluate their potency in cell-based assay system [Blood (2010) 115: 2203-2213; Current Protocols in Immunology (2004) 3.12.1-3.12.20].
Mouse splenocytes were obtained from the spleen of a C57BL/6 mouse and plated at a density of 0.25 million cells/well in a 96 well tissue culture plate. The effect of the compounds to inhibit IFN-γ release was evaluated by treating the splenocytes with various concentrations of the test compounds followed by stimulation with PHA (10 μg/ml) for 48 hours. The IFN-γ release in the cell culture supernatant was quantified by ELISA as per the manufacturer's protocol (BD Biosciences, #555138).

[5] = target: PI3Kα (Homo sapiens (Human), UniProt P42336); test: In vitro enzyme assay (Kinase-Glo), selectivity, PI3Kα; type: biochemical; conditions: enzyme 2.29 μg/mL; ATP 10 μM; PIP2 60 μM; 2 hours
PI3Kα, sequence (P42336 whole entry, species assumed): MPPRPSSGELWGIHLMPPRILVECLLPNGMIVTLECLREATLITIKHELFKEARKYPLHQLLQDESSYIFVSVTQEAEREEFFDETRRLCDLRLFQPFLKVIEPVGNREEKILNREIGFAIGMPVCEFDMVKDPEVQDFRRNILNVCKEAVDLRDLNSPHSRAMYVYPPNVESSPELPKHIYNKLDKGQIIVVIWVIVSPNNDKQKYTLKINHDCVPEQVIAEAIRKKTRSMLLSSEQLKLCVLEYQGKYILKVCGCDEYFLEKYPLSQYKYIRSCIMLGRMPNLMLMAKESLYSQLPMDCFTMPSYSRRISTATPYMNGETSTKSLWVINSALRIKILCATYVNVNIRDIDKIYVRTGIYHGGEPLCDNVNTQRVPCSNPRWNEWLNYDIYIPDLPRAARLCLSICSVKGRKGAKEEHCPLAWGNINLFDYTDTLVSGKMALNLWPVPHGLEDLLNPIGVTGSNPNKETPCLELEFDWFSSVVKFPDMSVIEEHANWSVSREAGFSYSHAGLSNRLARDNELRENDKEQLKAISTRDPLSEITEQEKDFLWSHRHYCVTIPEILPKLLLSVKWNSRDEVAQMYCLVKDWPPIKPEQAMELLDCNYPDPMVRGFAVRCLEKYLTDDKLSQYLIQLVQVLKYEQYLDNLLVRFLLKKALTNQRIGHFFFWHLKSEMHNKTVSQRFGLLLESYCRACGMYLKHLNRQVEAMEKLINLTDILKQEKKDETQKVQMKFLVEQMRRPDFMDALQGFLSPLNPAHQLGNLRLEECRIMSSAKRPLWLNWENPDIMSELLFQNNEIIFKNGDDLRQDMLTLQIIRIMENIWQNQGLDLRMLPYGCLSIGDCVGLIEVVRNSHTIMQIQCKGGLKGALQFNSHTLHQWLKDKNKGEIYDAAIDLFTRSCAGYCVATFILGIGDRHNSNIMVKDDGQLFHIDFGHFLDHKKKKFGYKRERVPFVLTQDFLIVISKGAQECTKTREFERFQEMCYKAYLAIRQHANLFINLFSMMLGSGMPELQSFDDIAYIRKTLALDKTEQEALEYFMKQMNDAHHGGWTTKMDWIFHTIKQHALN
PI3Kα, sequence (P27986 whole entry partner, species assumed): as the sequence (P27986 whole entry partner, species assumed) above
Method: as §2
as §1, with “follows. Enzyme: 2.29 μg/mL; ATP: 10 μM; PIP2 substrate: 60 μM and Reaction Time: 2 hours.” for “follows.”

[6] = target: recombinant PI3K δ enzyme (Homo sapiens (Human), UniProt O00329); test: In vitro enzyme assay (Kinase-Glo luminescent kinase assay), PI3Kδ; type: biochemical
recombinant PI3K δ enzyme, sequence (O00329 whole entry, species assumed, canonical isoform): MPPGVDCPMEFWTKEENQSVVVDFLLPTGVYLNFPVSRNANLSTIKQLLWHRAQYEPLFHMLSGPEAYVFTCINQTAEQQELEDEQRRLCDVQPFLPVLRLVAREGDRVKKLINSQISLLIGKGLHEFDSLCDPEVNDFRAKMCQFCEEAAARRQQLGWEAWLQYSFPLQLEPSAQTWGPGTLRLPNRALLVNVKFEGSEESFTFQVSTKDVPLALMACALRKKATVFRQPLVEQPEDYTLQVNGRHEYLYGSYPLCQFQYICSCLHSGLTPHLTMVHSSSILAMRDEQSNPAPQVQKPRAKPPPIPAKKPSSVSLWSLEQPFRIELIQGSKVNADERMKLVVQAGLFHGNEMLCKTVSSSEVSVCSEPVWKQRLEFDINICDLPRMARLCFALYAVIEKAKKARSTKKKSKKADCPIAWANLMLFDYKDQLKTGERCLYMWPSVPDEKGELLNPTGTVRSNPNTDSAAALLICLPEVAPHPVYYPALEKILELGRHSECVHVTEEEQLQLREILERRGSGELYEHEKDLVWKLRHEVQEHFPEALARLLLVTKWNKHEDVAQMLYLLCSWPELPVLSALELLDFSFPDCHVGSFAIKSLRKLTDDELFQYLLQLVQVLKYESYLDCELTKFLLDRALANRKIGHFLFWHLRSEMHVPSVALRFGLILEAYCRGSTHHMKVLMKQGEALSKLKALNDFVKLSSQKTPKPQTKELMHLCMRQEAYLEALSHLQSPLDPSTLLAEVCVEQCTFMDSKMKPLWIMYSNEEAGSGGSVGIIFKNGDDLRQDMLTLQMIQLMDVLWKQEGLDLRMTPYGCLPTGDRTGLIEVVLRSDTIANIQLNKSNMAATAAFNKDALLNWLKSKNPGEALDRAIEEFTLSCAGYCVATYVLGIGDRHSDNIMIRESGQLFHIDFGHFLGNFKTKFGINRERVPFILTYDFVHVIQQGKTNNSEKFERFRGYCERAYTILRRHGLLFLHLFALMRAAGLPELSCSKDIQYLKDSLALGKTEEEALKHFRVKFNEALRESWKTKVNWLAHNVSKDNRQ
recombinant PI3K δ enzyme, sequence (P27986 whole entry partner, species assumed, canonical isoform): as the sequence (P27986 whole entry partner, species assumed) above
In short: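 Each recombinant human PI3K isoform at 2.29 μg/mL with 60 μM PIP2 and 10 μM ATP in HEPES pH 7.4, NaCl, CHAPS, MgCl2, DTT, 2 hours at room temperature. Remaining ATP read by Kinase-Glo luminescence relative to no-enzyme blanks.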

[7] = Solubility in Japanese Pharmacopeia First Fluid (JP1) and Second Fluid (JP2); type: physicochemical; conditions: thermodynamic from solid, room temperature
Method: A 10 mmol/L solution of the test compound was prepared in DMSO and dispensed 100 μL of 10 mmol/L DMSO stock solutions into labeled glass tubes in duplicate, one for Japanese Pharmacopeia First Fluid (JP1) and second for Japanese Pharmacopeia Second Fluid (JP2). After evaporation of DMSO from each tube, 500 μL of JP1 and JP2 fluid were added in each tube, respectively. These tubes were sonicated for 1 minute and placed on shaker for 30 minutes with an interval of 30 seconds at every 5 minute. Tubes were placed in dark at room temperature for 1 hour and solution was filtered through membrane filter. The filtrate was diluted 2-fold and 10-fold. The resulting test solutions was analyzed and quantified against the standards using UPLC (standard preparation-10 mmol/L solution in DMSO is serially diluted with 50% aqueous acetonitrile solution to prepare 2 solutions; 100 μmol/L standard solution and 5 μmol/L standard solution).

[8] = system: eosinophil count in bronchoalveolar lavage fluid; test: House dust mite (HDM) induced chronic asthma model in Balb/c mice; type: in vivo; conditions: oral twice daily from week 3 to week 5; absolute eosinophil count in BAL fluid
Method: The protocol was followed as described in Am. J. Respir. Crit. Care Med., 2004; 169: 378-385. Female Balb/c mice were exposed to purified HDM (Dermatophagoides pteronyssinus) extract, intranasally (25 μg of protein in 20 μl of saline) for 5 days/week for up to five consecutive weeks. Compounds were administered orally twice daily from week 3 to week 5. Forty-eight hours after last HDM exposure, the animals were euthanized and bronchoalveolar lavage fluid was collected. The cell suspensions were processed and absolute eosinophil count was enumerated.

[9] = enzyme 2.29 μg/mL, ATP 10 μM, PIP2 60 μM, 2 hours
[10] = pH 1.2, simulated gastric fluid, Japanese Pharmacopeia First Fluid (JP1), read-out: Solubility JP1
[11] = pH 6.8, aqueous buffer, Japanese Pharmacopeia Second Fluid (JP2), read-out: Solubility JP2

IC50 [1] [nM] | IC50 [3] [nM] | IC50 [4] [nM] | IC50 [5] [nM] | IC50 [6] [nM] | IC50 [6, 9] [nM] | solubility at 30 min [7, 10] [µg/mL] | solubility at 30 min [7, 11] [µg/mL] | Structure (SMILES) | Percent inhibition of BAL eosinophil count at 3 mg/kg [2] [%] | ED50 [8] | ED50 [2]
– | – | – | – | – | – | > 1510 | 124 (≈ 265 µM) | O=C(c1nc2c(N3CCOCC3)nc(-c3cn[nH]c3)nc2[nH]1)N1CCC(N2CCOCC2)CC1 [compound 42, [4-(Morpholin-4-yl)piperidin-1-yl][6-(morpholin-4-yl)-2-(1H-pyrazol-4-yl)-9H-purin-8-yl]methanone] | – | – | –
640 | > 10000 | 28 | 2190 | 13 | 13 | – | – | Cn1cc(-c2cc(N3CCOCC3)c3nc(C(=O)N4CCC5(CC4)COC5)[nH]c3n2)cn1 [compound 78, [5-(1-Methyl-1H-pyrazol-4-yl)-7-(morpholin-4-yl)-3H-imidazo[4,5-b]pyridin-2-yl](2-oxa-7-azaspiro[3.5]non-7-yl)methanone] | 45 | – | –
– | – | – | – | 29 | – | 816 (≈ 1790 µM) | 321 (≈ 703 µM) | CN(C)C1CCN(C(=O)c2nc3c(N4CCOCC4)c(F)c(-c4cnn(C)c4)nc3[nH]2)CC1 [compound 99, [4-(Dimethylamino)piperidin-1-yl][6-fluoro-5-(1-methyl-1H-pyrazol-4-yl)-7-(morpholin-4-yl)-3H-imidazo[4,5-b]pyridin-2-yl]methanone] | – | – | –
– | – | – | – | 19 | – | 932 (≈ 1940 µM) | 560 (≈ 1170 µM) | Cn1cc(-c2cc(N3CCOCC3)c3nc(C(=O)N4CCC(N5CCOCC5)CC4)[nH]c3n2)cn1 [compound 102, [5-(1-Methyl-1H-pyrazol-4-yl)-7-(morpholin-4-yl)-3H-imidazo[4,5-b]pyridin-2-yl][4-(morpholin-4-yl)piperidin-1-yl]methanone] | – | – | –

The remaining lines, values behind:

Structure (SMILES) | IC50 [1] [nM] | IC50 [3] [nM] | IC50 [4] [nM] | IC50 [5] [nM] | IC50 [6] [nM] | IC50 [6, 9] [nM] | solubility at 30 min [7, 10] [µg/mL] | solubility at 30 min [7, 11] [µg/mL] | Percent inhibition of BAL eosinophil count at 3 mg/kg [2] [%] | ED50 [8] | ED50 [2]
Cn1cc(-c2nc(N3CCOCC3)c3nc(C(=O)N4CCC5(CC4)COC5)[nH]c3n2)cn1 [compound 3, [2-(1-Methyl-1H-pyrazol-4-yl)-6-(morpholin-4-yl)-9H-purin-8-yl](2-oxa-7-azaspiro[3.5]non-7-yl)methanone] | > 1000 | > 10000 | 55 | > 1000 | 15 | 15 | – | – | 46 | – | –
C[C@@H]1CN(C2CCN(C(=O)c3nc4c(N5CCOCC5)nc(-c5cnn(C)c5)nc4[nH]3)CC2)C[C@H](C)O1 [compound 5, {4-[cis-2,6-Dimethylmorpholin-4-yl]piperidin-1-yl}[2-(1-methyl-1H-pyrazol-4-yl)-6-(morpholin-4-yl)-9H-purin-8-yl]methanone] | 1180 | – | 111 | > 1000 | – | – | 834 (≈ 1640 µM) | 286 (≈ 561 µM) | – | 1.6 mg/Kg, bid | –
Cn1cc(-c2cc(N3CCOCC3)c3nc(C(=O)N4CCC(N5CCOCC5=O)CC4)[nH]c3n2)cn1 [compound 77, 4-(1-{[5-(1-Methyl-1H-pyrazol-4-yl)-7-(morpholin-4-yl)-3H-imidazo[4,5-b]pyridin-2-yl]carbonyl}piperidin-4-yl)morpholin-3-one] | – | – | – | – | 9 | – | 1430 (≈ 2890 µM) | 251 (≈ 508 µM) | – | – | –
Cc1nn(C)cc1-c1nc2[nH]c(C(=O)N3CCC(C(C)(C)O)CC3)nc2c(N2CCOCC2)c1F [compound 84, [5-(1,3-Dimethyl-1H-pyrazol-4-yl)-6-fluoro-7-(morpholin-4-yl)-3H-imidazo[4,5-b]pyridin-2-yl][4-(2-hydroxypropan-2-yl)piperidin-1-yl]methanone] | – | – | – | – | 5 | – | – | – | 26 | – | –
Cc1nn(C)cc1-c1nc2c(nc(C(=O)N3CCC(N4CCOCC4)CC3)n2C)c(N2CCOCC2)c1F [compound 87, [5-(1,3-Dimethyl-1H-pyrazol-4-yl)-6-fluoro-3-methyl-7-(morpholin-4-yl)-3H-imidazo[4,5-b]pyridin-2-yl][4-(morpholin-4-yl)piperidin-1-yl]methanone] | > 10000 | > 10000 | 47 | > 10000 | 3 | 3 | – | – | – | – | 0.8 mg/kg, bid
Cc1nn(C)cc1-c1cc(N2CCOCC2)c2nc(C(=O)N3CCC(N4CCOCC4)CC3)[nH]c2n1 [compound 94, [5-(1,3-Dimethyl-1H-pyrazol-4-yl)-7-(morpholin-4-yl)-3H-imidazo[4,5-b]pyridin-2-yl][4-(morpholin-4-yl)piperidin-1-yl]methanone] | 3030 | 9910 | 11 | 971 | 4 | 4 | 808 (≈ 1630 µM) | 754 (≈ 1520 µM) | – | – | –
Cc1nn(C)cc1-c1nc2[nH]c(C(=O)N3CCC(N4CCOCC4)CC3)nc2c(N2CCOCC2)c1F [compound 96, [5-(1,3-Dimethyl-1H-pyrazol-4-yl)-6-fluoro-7-(morpholin-4-yl)-3H-imidazo[4,5-b]pyridin-2-yl][4-(morpholin-4-yl)piperidin-1-yl]methanone] | – | – | – | – | 3 | – | > 1020 | 424 (≈ 827 µM) | – | – | 2.5 mg/kg, bid
Cc1nn(C)cc1-c1nc2[nH]c(C(=O)N3CCC(N(C)C)CC3)nc2c(N2CCOCC2)c1F [compound 97, [4-(Dimethylamino)piperidin-1-yl][5-(1,3-dimethyl-1H-pyrazol-4-yl)-6-fluoro-7-(morpholin-4-yl)-3H-imidazo[4,5-b]pyridin-2-yl]methanone] | 961 | > 10000 | 183 | 1080 | 3 | 3 | > 936 | > 923 | – | – | –
